Where “and” joins values, the source holds several entries; their conditions need not be identical. Equal entries are not always repeated.
| SMILES | melting point |
| --- | --- |
| N#Cc1cncnc1N [4-aminopyrimidine-5-carbonitrile] | 255 °C |
| CCCCCCCCCCCCCC(=O)CCCCCCCCCCCCC [14-heptacosanone] | 78 °C |
| CN(C)CCOc1ccc(/C(=C(\CCCl)c2ccccc2)c2ccccc2)cc1 | 108 °C |
| CCCCCCCCCCC(=O)O [undecanoic acid] | 28.6 °C |
| CC(=O)OCC1OC(C(N)=O)C(OC(C)=O)C(OC(C)=O)C1OC(C)=O (configuration not stated) | 129 °C |
| NC(=O)/C(=N\Nc1ccc(O)cc1)c1nc2ccccc2s1 | 161 °C |
| OCCN1CCCCC1C(c1ccccc1)c1ccccc1 (configuration not stated) [diphemethoxidine] | 106 °C |
| CCOCCOC(C)=O [2-ethoxyethyl acetate] | -62 °C |
| Cc1ccc(CCc2ccc(C)cc2)cc1 [4,4'-Dimethylbibenzyl] | 78 °C |
| COC(=O)c1cc(C)n(CN(Cn2nc(C(=O)OC)cc2C)c2ccccc2)n1 | 125 °C |
| NC1CCCCC1 [Cyclohexanamine] | -18 °C |
| CCOC(C)(C)C [2-Ethoxy-2-methylpropane] | -94 °C |
| ClC1CCCC1 [chlorocyclopentane] | -94 °C |
| NS(=O)(=O)c1cc(C(=O)O)c(NCc2ccco2)cc1Cl [Furosemide] | 206 °C |
| C[Si](C)(C)O[Si](C)(C)C [hexamethyldisiloxane] | -67 °C |
| Cc1noc(NS(=O)(=O)c2ccc(N)cc2)c1C [Sulfisoxazole] | 194 °C |
| Cc1cc(Cl)c(C)cc1Cl [2,5-dichloro-p-xylene] | 69 °C |
| NNC(=O)c1ccncc1 [Isoniazid] | 171 °C |
| C#CC1(O)CCC2C3CCc4cc(O)ccc4C3C(OC)CC21C (configuration not stated) [moxestrol] | 280 °C |
| C=CC(=O)OCC [ethyl_acrylate] | -71 °C |
| Brc1ccccc1 [bromobenzene] | -31 °C |
| CC(C)(C)c1cnc(C(=O)Nc2cccc(Br)c2)cn1 [N-(3-bromophenyl)-5-tert-butylpyrazine-2-carboxamide] | 114 °C |
| C1=C\CCCCCC/1 [cis-cyclooctene] | -16 °C |
| COc1ccc(/N=N/c2c(N)nn3c(C(F)(F)F)cc(C)nc23)cc1 | 159 °C |

| SMILES | melting point |
| --- | --- |
| COc1ccc([C@@H]2CC(=O)c3c(O)cc(O)cc3O2)cc1O [3',5,7-trihydroxy-4'-methoxyflavanone] | 230 °C |
| CNC(C)=O [N-methylacetamide] | 27 °C |
| C1CCSC1 [Tetrahydrothiophene] | -96 °C |
| Sc1nc2ccccc2[nH]1 [2-mercaptobenzimidazole] | 303 °C |
| CCCCCCCCCCCCSc1cc(N(NC(=O)OC(C)(C)C)C(=O)OC(C)(C)C)cc(SCCCCCCCCCCCC)c1SCCCCCCCCCCCC | 50 °C |
| Cc1cc(C)cc(C=O)c1 [3,5-dimethylbenzaldehyde] | 9 °C |
| Nc1nc(-c2ccc(Br)cc2)cs1 [2-amino-4-(4-bromophenyl)thiazole] | 184 °C |
| CC(C)(C)C1=CC(=O)C(=O)C(C(C)(C)C)=C1 [3,5-Di-tert-butyl-1,2-benzoquinone] | 114 °C |
| CC(=O)C(=Cc1ccc(-c2cccc([N+](=O)[O-])c2)o1)C(C)=O | 154 °C |
| CCC(C)CC(=O)O (configuration not stated) [3-methylvaleric acid] | -42 °C |
| C=CCCCCC [1-heptene] | -119 °C |
| C=CCC1(c2ccccc2)C(=O)NC(=O)NC1=O [5-allyl-5-phenylbarbiturate] | 158 °C |
| O=C(O)C(F)(F)C(F)(F)C(F)(F)C(F)(F)C(F)(F)C(F)(F)C(F)(F)C(F)(F)F [Heptadecafluorononanoic acid] | 66.5 °C |
| Oc1ccccc1I [2-iodophenol] | 43 °C and 38.5 °C |
| N#Cc1ccccc1C=O [o-cyanobenzaldehyde] | 108 °C |
| O=C(O)c1cc(F)nc(F)c1F [2,3,6-trifluoropyridine-4-carboxylic acid] | 120 °C |
| ClC(Cl)c1ccccc1 [a,a-dichlorotoluene] | -16 °C |
| Oc1c(Br)cc(Br)cc1Br [2,4,6-tribromophenol] | 89 °C |
| NC1CCCCC1 [cyclohexylamine] | -17 °C and -17.7 °C |
| CCCCCCCCCCCCO[C@@H]1O[C@H](CO)[C@@H](O[C@H]2O[C@H](CO)[C@@H](O)[C@H](O)[C@H]2O)[C@H](O)[C@H]1O [Dodecyl 4-O-alpha-D-glucopyranosyl-beta-D-glucopyranoside] | 150 °C |
| Cc1cc(C)c(B(O)O)c(C)c1 [2,4,6-trimethylbenzeneboronic acid] | 124 °C |
| CC(=O)c1ccc(N=C=S)cc1 [4-acetylphenyl isothiocyanate] | 79 °C |
| O=C(Cl)c1ccc([N+](=O)[O-])cc1 [4-nitrobenzoyl chloride] | 73 °C |

Next, values leading:

| melting point | SMILES |
| --- | --- |
| 176 °C | c1ccc2nc3ccccc3nc2c1 [phenazine] |
| 185 °C | COc1ccc(C(=O)O)cc1 [P-Anisic Acid] |
| 161 °C | O=C(O)c1cccc2ccccc12 [1-naphthoic acid] |
| 59 °C | CC(=O)CC(=O)c1ccccc1 [benzoylacetone] |
| 266 °C | O=C(O)c1sc2ccccc2c1Cl [3-chlorobenzo[b]thiophene-2-carboxylic acid] |
| 177 °C | NC(=O)c1ccccc1-c1ccccc1 [o-phenylbenzamide] |
| 82 °C | O=C(c1ccccc1)c1ccc(Br)cc1 [p-bromobenzophenone] |
| 116 °C | O=S(=O)(c1ccccc1)c1ccsc1 [3-(phenylsulfonyl)thiophene] |
| 119 °C | c1ccc2c3c([nH]c2c1)CCCC3 [1,2,3,4-tetrahydrocarbazole] |
| 77 °C | O=C(CC(=O)c1ccccc1)c1ccccc1 [1,3-Diphenylpropane-1,3-dione] |
| 187 °C | CC(=O)Nc1ccc(OC(=O)c2ccccc2O)cc1 [acetaminosalol] |
| 88 °C | COC(=O)C(C#N)c1ccccc1[N+](=O)[O-] (configuration not stated) [methyl cyano(2-nitrophenyl)acetate] |
| 126 °C | C(=Cc1ccccc1)c1ccccc1 [stilbene] |
| 100 °C | OCc1cc2ccccc2s1 [benzo[b]thiophene-2-methanol] |
| 122 °C | CC(=O)c1ccccc1C(N)=O [o-acetylbenzamide] |
| 246 °C | Cc1nc(-c2cccnc2)sc1C(=O)O [4-methyl-2-(3-pyridyl)thiazole-5-carboxylic acid] |
| 27 °C | c1ccc(Oc2ccccc2)cc1 [Diphenyl ether] |
| 122 °C | O=C1CCN(c2ccccc2)N1 [1-Phenylpyrazolidin-3-one] |
| 10 °C | Brc1ccccc1I [o-bromoiodobenzene] |
| 83 °C | O=C(C(=O)c1cccs1)c1cccs1 [2,2'-thenil] |
| 164 °C | O=C(O)c1ccccc1OP(=O)(O)O [2-carboxyphenyl phosphate] |
| 48 °C | O=S(=O)(O)c1ccccc1 [benzenesulfonic acid] |
| 10 °C | NCc1ccccc1 [Benzylamine] |
| 156 °C | O=C(O)CSc1cccc2cccc(Cl)c12 [2-(8-chloro-1-naphthylthio)acetic acid] |
| 160 °C | O=C(O)Cc1c(Cl)cccc1Cl [2,6-dichlorophenylacetic acid] |
